The test system of data set [1] is isolated rat cardiomyocytes. Description: Cytoprotective effects in cardiomyocytes, hypoxia-reoxygenation protocol (Trypan Blue exclusion). The class given is cell-based. To be noted: for cytoprotection: compounds 1 μM, etomoxir 20 μM; for cytoprotective effect in presence of etomoxir: compound 1 μM + etomoxir 20 μM. As for the experimental part: Upper panel: Alkanoic acids 28a and 28b (1 μM), methimazole (1 μM), and etomoxir (20 μM) were incubated with cardiomyocytes in a hypoxia-reoxygenation protocol. CON, control; HR, hypoxia-reoxygenation; Eto, etomoxir. Statistical analysis (one-way ANOVA, n=3): CON vs. HR, p<0.05; HR vs. HR+28a, p<0.05; CON vs. HR+28a, NS; HR+28a vs. HR+28a+Eto, p<0.05; HR vs. HR+28b, p<0.05; HR+28b vs. HR+28b+Eto, p<0.05; HR vs. Methimazole, NS. Lower panel: Alkanoic acids 25c and 30a (1 μM), 2,6-dimethylphenol (1 μM), and etomoxir (20 μM) were incubated with cardiomyocytes in a hypoxia-reoxygenation protocol. CON, control; HR, hypoxia-reoxygenation; Eto, etoximir. Statistical analysis (one-way ANOVA, n=3): CON vs. HR, p<0.05; HR vs. HR+25c, p<0.05; CON vs. HR+25c, p<0.05; HR+25c vs. HR+25c+Eto, p<0.05; HR vs. HR+30a, p<0.05; HR+30a vs. HR+30a+Eto, p<0.05; HR vs. 2,6-Dimethylphenol, NS.
Primary ventricular cardiomyocytes were isolated from adult rats and viability was assessed […]. All cells were used within 1 hour of isolation and were 80-85% viable and rod-shaped prior to the experiments. Cell viability was quantified with the Trypan Blue exclusion test. The cells were subjected to a hypoxia-reoxygenation protocol designed to simulate cardiac ischemia-reperfusion injury.

Data set [2] relates to isolated rat liver mitochondria (mitochondrial β-oxidation). Description: Mitochondrial biotransformation of alkanoic-acid-based prodrugs. To be noted: for effect of added carnitine on biotransformation: presence vs. absence of added carnitine; for biotransformation / substrate quality for β-oxidation (in words): isolated rat liver mitochondria. The source says:
Mitochondrial Biotransformation of Alkanoic-Acid-Based Prodrugs. Rat liver mitochondria were isolated from livers freshly collected from adult male Sprague-Dawley rats (190-225 g) and were used as soon as possible after isolation (Nadtochiy, et al. (2007) J. Mol. Cell. Cardiol. 42:812; Hoffman et al. (2007) Am. J. Physiol. 292:H101). Livers were removed immediately after CO2 euthanasia of the animal, minced, and homogenized with a glass Dounce homogenizer with loose-fitting pestle in liver mitochondria isolation medium that contained 0.25 M sucrose, 2.0 mM HEPES, 1.0 mM EGTA (pH 7.4) at 4° C. The homogenate was centrifuged once at 1000×g for 3 minutes at 4° C. to remove cellular debris. After removal of visible surface fat, the resulting supernatant was centrifuged at 10,000×g for 10 minutes at 4° C. The supernatant was discarded after removing visible surface fat, and the pellet was suspended in ice-cold liver mitochondria isolation medium and centrifuged again at 10,000×g for 10 minutes at 4° C. The mitochondrial pellet thus obtained was suspended in Ca^2+-depletion buffer (1 mM EGTA, 10 mM NaCl, 5 mM succinate, 195 mM mannitol, 25 mM sucrose, 40 mM HEPES, pH 7.2) at room temperature) and incubated with gentle stirring first at room temperature for 10 minutes and then in an ice bath for 5 minutes. Ca^2+-Depletion buffer serves to chelate calcium, activate mitochondrial respiration, and activate the Na^+/Ca^2+ exchanger. The mitochondrial suspension was then centrifuged at 10,000×g for 10 minutes at 4° C., and the pellet was suspended in liver swelling buffer that contained 195 mM mannitol, 25 mM sucrose, 40 mM HEPES (pH 7.2) at 4° C.; liver swelling buffer allows for ionic/osmotic equilibrium through the remainder of the preparation. The suspension was centrifuged at 10,000×g for 10 minutes at 4° C., followed by the removal of light mitochondria and a final centrifugation at 10,000×g for 10 minutes at 4° C. The mitochondrial pellet was suspended in liver swelling buffer at 4° C. Protein concentrations were determined with the Lowry reagent.^56
The quality of mitochondrial preparations was determined by estimating the respiration control ratio (RCR, i.e., the ratio of state 3 vs. state 4 respiration rates) with a Clark-type oxygen electrode (Oxygraph, Hansatech Instruments, Norfolk, England). The incubation mixtures contained 120 mM KCl, 25 mM sucrose, 5 mM MgCl2, 5 mM KH2PO4, 1 mM EGTA, 10 mM HEPES, 10 mM succinate, 2.5 mg/mL fat-free bovine serum albumin, 0.5-0.8 mg/mL mitochondrial protein, 5 μM rotenone, and 100 μM ADP (pH 7.4) and were incubated at 37° C.
Reaction mixtures were prepared in disposable glass culture tubes and contained 20 mM HEPES, 1 mM EGTA, 100 mM KCl, 5 mM KH2PO4, 10 mM MgCl2, 25 mM sucrose, 2 mM L-carnitine (if added), 5 mM ATP, 10 mg/mL bovine serum albumin, 1.4 mM dithiothreitol, 0.13 mM CoA, and 1 mM substrate (pH 7.4). Reaction mixtures were incubated at 37° C. with gentle stirring. Mitochondrial protein (approximately 5 mg/mL) was added, and the samples were incubated for 5 minutes with gentle mixing, which was maintained during the incubation period, to keep the homogenate suspended. After 5 minutes of incubation, the substrates were added. The substrates were dissolved in methanol and added to the reaction mixtures to a final concentration of 1 mM, unless otherwise stated; the final methanol concentration was ≦0.5%. ω-(1-Methyl-1H-imidazol-2-ylthio)alkanoic acids 28a and 28b were dissolved in distilled water and added to the reaction mixtures to a final concentration of 1 mM. Samples were incubated at 37° C. for 30 minutes with constant gentle mixing, and samples were collected for analysis at t=0, 10, 20, and 30 minutes.
Phenolic metabolite formation, i.e., phenol, 2-methylphenol, 2,6-dimethylphenol, 3,5-dimethylphenol, and 2,6-diisopropylphenol, from ω-(phenoxy)alkanoic acids, was quantified by HPLC analysis.

For data set [3], the system named is IMR90 cells. To be noted: cited from earlier work.
For data set [4] the following is noted: 5 mg/kg daily for two weeks in feed, cited from earlier work.
For data set [5] the following is noted: cited from earlier work.

As to `Cn1ccnc1S` [methimazole, 2-Mercapto-1-methylimidazole, reference compound], the cytoprotection result in data set [1] was “failed to provide cytoprotection”. On the same count and under the same terms, the same measure for `CCOC(=O)[C@@]1(CCCCCCOc2ccc(Cl)cc2)CO1` [etomoxir, reference compound]: “no cytoprotective effect”. In the case of `O=C(O)CCOc1ccccc1` [Compound 25a, 3-(Phenoxy)propanoic acid], the “effect of added carnitine on biotransformation” value in data set [2] was “no significant difference”.

For `Cn1ccnc1SCCC(=O)O` [Compound 28a, 3-(1-methyl-1H-imidazol-2-ylthio)propanoic acid], in data set [1], the “cytoprotective effect in presence of etomoxir” value (from here on “cytoprotective effect”) is recorded as “blocked by etomoxir” and the cytoprotection entry is “significant cytoprotection”. In the case of `Cc1cccc(C)c1OCSCCC(=O)O` [Compound 29, 3-[(2,6-Dimethylphenoxy)methylthio]propanoic acid], in data set [2], the “biotransformation / substrate quality for β-oxidation (in words)” value (“biotransformation / substrate quality” for short) was “much better substrate” and the “effect of added carnitine on biotransformation” value was “no significant difference”. Consider `ONCc1ccccc1` [N-benzylhydroxylamine], for which the “concentration that delays senescence (as low as)” value in data set [3] is 10 µM. Turning to `CNO` [N-methylhydroxylamine], the “concentration that delays senescence (as low as)” value in data set [3] was 10 µM.

`CC(C)(C)NO` [N-tert-butylhydroxylamine]: the “concentration that delays senescence (as low as)” value in data set [3] was 10 µM. Moreover, the radiation sensitivity entry in data set [4] (8 Gy whole-body irradiation) was “decreased the radiation sensitivity”. For the same molecule, in data set [4], the compound-associated toxicity result is “no compound-associated toxicity was observed”. For the molecule `CC(C)c1cccc(C(C)C)c1O/C=C/C(=O)O` [Compound 30b, (E)-3-(2,6-diisopropylphenoxy)acrylic acid], the “biotransformation / substrate quality” value in data set [2] is reported as “No quantifiable biotransformation”. Same read-out and setting: the same measure for `Cc1cccc(C)c1OCCCCC(=O)O` [Compound 26c, 5-(2,6-Dimethylphenoxy)pentanoic acid]: “poor substrates”. Turning to `Cc1cccc(C)c1OCCC(=O)O` [Compound 25c, 3-(2,6-Dimethylphenoxy)propanoic acid], in data set [1], the “cytoprotective effect” value is recorded as “blocked by etomoxir” and the cytoprotection result is given as “cytoprotective”. Besides, the “biotransformation / substrate quality” value in data set [2] was “poor substrates”.

For `Cc1c(S)ncn1C` [1,5-dimethyl-4-mercaptoimidazole], in data set [5], the “pKa of the thiol group” value is 2.3. Turning to `Cn1ccnc1SCCCCC(=O)O` [Compound 28b, 5-(1-Methyl-1H-imidazol-2-ylthio)pentanoic acid], in data set [1], the “cytoprotective effect” value was “blocked by etomoxir” and the cytoprotection result is recorded as “significant cytoprotection”. Regarding `Cc1cccc(C)c1O/C=C\C(=O)O` [(Z)-3-(2,6-dimethylphenoxy)acrylic acid], the “biotransformation / substrate quality” value in data set [2] is “no biotransformation”. In the case of `Cc1cccc(C)c1O/C=C/C(=O)O` [Compound 30a, (E)-3-(2,6-dimethylphenoxy)acrylic acid], in data set [1], the “cytoprotective effect” value is “blocked by etomoxir” and the cytoprotection entry was “cytoprotective”. Moreover, in data set [2] (30a vs. 25c), the “rate of biotransformation relative to saturated analog 25c” value was “approximately 20 fold”.

The values above are taken from US8470861B2, “Mitochondria-targeted antioxidant prodrugs and methods of use” (University of Rochester, priority 2005, dated 2013).
